The subject of the assay is Aβ42 production. As to the kind of experiment: Quantification of Aβ peptide in culture of neurons from rat fetus brain (Aβ ELISA). Type of assay: cell-based. Conditions: Neuron, 72 h; rat primary neuronal culture (cerebral cortex, embryonic day 18 Wistar rats); medium collected three days after addition of the compound; Aβx-42 ELISA; read-out: Aβ42 production reducing effect IC50. On the procedure: Quantification of Aβ Peptide in Culture of Neurons from Rat Fetus Brain
(1) Rat Primary Neuronal Culture
Primary neuronal cultures were prepared from the cerebral cortex of embryonic day 18 Wistar rats (Charles River Japan, Yokohama, Japan). Specifically, the embryos were aseptically removed from pregnant rats under ether anesthesia. The brain was isolated from the embryo and immersed in an ice-cold L-15 medium (such as Invitrogen Corp. Cat #11415-064, Carlsbad, Calif., USA, or SIGMA L1518). The cerebral cortex was collected from the isolated brain under a stereoscopic microscope. The cerebral cortex fragments collected were enzymatically treated in an enzyme solution containing 0.25% trypsin (Invitrogen Corp. Cat #15050-065, Carlsbad, Calif., USA) and 0.01% DNase (Sigma D5025, St. Louis, Mo., USA) at 37° C. for 30 minutes to disperse the cells. Here, the enzymatic reaction was stopped by adding inactivated horse serum to the solution. The enzymatically treated solution was centrifuged at 1,500 rpm for five minutes to remove the supernatant. 5 to 10 mL of a medium was added to the resulting cell mass. Neurobasal medium (Invitrogen Corp. Cat #21103-049, Carlsbad, Calif., USA) supplemented with 2% B27 supplement (Invitrogen Corp. Cat #17504-044, Carlsbad, Calif., USA), 25 μM 2-mercaptoethanol (2-ME, WAKO Cat #139-06861, Osaka, Japan), 0.5 mM L-glutamine (Invitrogen Corp. Cat #25030-081, Carlsbad, Calif., USA), and Antibiotics-Antimycotics (Invitrogen Corp. Cat #15240-062, Carlsbad, Calif., USA) was used as the medium (Neurobasal/B27/2-ME). However, the above Neurobasal medium not supplemented with 2-ME (Neurobasal/B27) was used for the assay. The cells were redispersed by mild pipetting of the cell mass to which the medium was added. The cell dispersion was filtered through a 40-μm nylon mesh (Cell Strainer, Cat #35-2340, Becton Dickinson Labware, Franklin Lakes, N.J., USA) to remove the remaining cell mass, and thus a neuronal cell suspension was obtained. The neuronal cell suspension was diluted with the medium and then plated in a volume of 100 μL/well at an initial cell density of 5×10^5 cells/cm^2 in a 96-well polystyrene culture plate pre-coated with poly-L or D-lysine (Falcon Cat #35-3075, Becton Dickinson Labware, Franklin Lakes, N.J., USA coated with poly-L-lysine using the method shown below, or BIOCOAT™ cell environments Poly-D-lysine cell ware 96-well plate, Cat #35-6461, Becton Dickinson Labware, Franklin Lakes, N.J., USA). Poly-L-lysine coating was carried out as follows. 100 μg/mL of a poly-L-lysine (SIGMA P2636, St. Louis, Mo., USA) solution was aseptically prepared with a 0.15 M borate buffer (pH 8.5). […] of the solution was added to the 96-well polystyrene culture plate and incubated at room temperature for one or more hours or at 4° C. overnight or longer. Thereafter, the coated 96-well polystyrene culture plate was washed with sterile water four or more times, and then dried or rinsed with, for example, sterile PBS or medium, and used for cell plating. The plated cells were cultured in the culture plate at 37° C. in 5% CO2-95% air for one day. Then, the total amount of the medium was replaced with a fresh Neurobasal™/B27/2-ME medium, and then the cells were cultured for further three days.
The drug was added to the culture plate on Day 4 of culture as follows. The total amount of the medium was removed from the wells, and 180 μL/well of Neurobasal medium not containing 2-ME and containing 2% B-27 (Neurobasal/B27) was added thereto. A solution of the test compound in dimethyl sulfoxide (hereinafter abbreviated as DMSO) was diluted with Neurobasal/B27 to a concentration 10-fold higher than the final concentration. 20 μL/well of the dilution was added to and sufficiently mixed with the medium. The final DMSO concentration was 1% or less. Only DMSO was added to the control group.
The cells were cultured for three days after addition of the compound, and the total amount of the medium was collected. […]

SMILES strings stand for the structures.

For orientation: IC50 means the concentration that gives 50% inhibition.

Take `CO[C@H]1C[C@H]2CSC(N)=N[C@@]2(c2cc(NC(=O)c3ccc(C#N)cn3)ccc2F)C1` (relative stereo) [Example 31, (+)-N-[3-((4aR*,6S*,7aS*)-2-amino-6-methoxy-4a,5,6,7-tetrahydro-4H-cyclopenta[d][1,3]thiazin-7a-yl)-4-fluorophenyl]-5-cyanopyridine-2-carboxamide]: the 50% inhibitory concentration (IC50) stood at 4 nM.

For the molecule `CO[C@@H]1C[C@H]2CSC(N)=N[C@@]2(c2cc(NC(=O)c3ccc(C#N)cn3)ccc2F)C1` (relative stereo) [Example 32, (+)-N-[3-((4aR*,6R*,7aS*)-2-amino-6-methoxy-4a,5,6,7-tetrahydro-4H-cyclopenta[d][1,3]thiazin-7a-yl)-4-fluorophenyl]-5-cyanopyridine-2-carboxamide], the IC50 stood at 1.1 nM. Under `N#Cc1ccc(C(=O)Nc2ccc(F)c([C@]34CCCCC[C@H]3CSC(N)=N4)c2)nc1` (relative stereo) [Example 33, (+)-N-[3-((4aR*,9aS*)-2-amino-4a,5,6,7,8,9-hexahydro-4H-cyclohepta[d][1,3]thiazin-9a-yl)-4-fluorophenyl]-5-cyanopyridine-2-carboxamide] stands 10 nM. For `CC[C@H]1OC[C@]2(c3cc(NC(=O)c4ccc(C#N)cn4)ccc3F)N=C(N)SC[C@H]12` (relative stereo) [Example 49, N-[3-((4aS*,5R*,7aS*)-2-amino-5-ethyl-4a,5-dihydro-4H-furo[3,4-d][1,3]thiazin-7a-yl)-4-fluorophenyl]-5-cyanopyridine-2-carboxamide] the value was 0.8 nM.

Regarding `CC[C@H]1OC[C@]2(c3cc(NC(=O)c4cnc(OC(F)F)cn4)ccc3F)N=C(N)SC[C@H]12` (relative stereo) [Example 50, N-[3-((4aS*,5R*,7aS*)-2-amino-5-ethyl-4a,5-dihydro-4H-furo[3,4-d][1,3]thiazin-7a-yl)-4-fluorophenyl]-5-difluoromethoxypyrazine-2-carboxamide], the IC50 was found to be 0.9 nM. For `CC[C@H]1OC[C@]2(c3cc(NC(=O)c4ccc(Cl)cn4)ccc3F)N=C(N)SC[C@H]12` (relative stereo) [Example 51, N-[3-((4aS*,5R*,7aS*)-2-amino-5-ethyl-4a,5-dihydro-4H-furo[3,4-d][1,3]thiazin-7a-yl)-4-fluorophenyl]-5-chloropyridine-2-carboxamide] the value was 1.6 nM; for `CC[C@H]1OC[C@]2(c3cc(NC(=O)c4cnc(OCF)cn4)ccc3F)N=C(N)SC[C@H]12` (relative stereo) [Example 52, N-[3-((4aS*, 5R*,7aS*)-2-amino-5-ethyl-4a,5-dihydro-4H-furo[3,4-d][1,3]thiazin-7a-yl)-4-fluorophenyl]-5-fluoromethoxypyrazine-2-carboxamide], 2 nM; for `CC[C@H]1OC[C@]2(c3cc(NC(=O)c4cnc(C(F)F)cn4)ccc3F)N=C(N)SC[C@H]12` (relative stereo) [Example 53, N-[3-((4aS*,5R*,7aS*)-2-amino-5-ethyl-4a,5-dihydro-4H-furo[3,4-d][1,3]thiazin-7a-yl)-4-fluorophenyl]-5-difluoromethylpyrazine-2-carboxamide], 2 nM. As for `C[C@H]1OC[C@]2(c3cc(NC(=O)c4ccc(C#N)cn4)ccc3F)N=C(N)SC[C@H]12` (relative stereo) [Example 54, N-[3-((4aS*,5R*,7aS*)-2-amino-5-methyl-4,5-dihydro-4H-furo[3,4-d][1,3]thiazin-7a-yl-4-fluorophenyl]-5-cyanopyridine-2-carboxamide], the 50% inhibitory concentration (IC50) amounted to 1.7 nM. For `C[C@H]1OC[C@]2(c3cc(NC(=O)c4cnc(OC(F)F)cn4)ccc3F)N=C(N)SC[C@H]12` (relative stereo) [Example 55, N-[3-((4aS*,5R*,7aS*)-2-amino-5-methyl-4a,5-dihydro-4H-furo[3,4-d][1,3]thiazin-7a-yl)-4-fluorophenyl]-5-difluoromethoxypyrazine-2-carboxamide] the value was 1.1 nM.

Values taken from patent US20100317850A1 (priority 2008, published 2010).
